Two substances from patent US7264969B1, “Carrier system for specific artery wall gene delivery” (University of Utah Research Foundation, priority 2000, dated 2007) can be followed below.

Where no end group is shown, it is not given here.

The test system of data set [1] is bovine aorta endothelial cells. Description: Transfection inhibition assay with free AWBP. To be noted: free AWBP 31.25 μM to 500 μM. In kind it is cell-based. As to the method:
(§1) (Transfectioninhibition assay). Bovine aorta endothelial cells (5×10^5/well) and smooth muscle cells (2×10^5/well) were seeded in 24-well plates 1 day prior to transfection with 70 to 80% confluence. The AWBP-PEG-g-PLL/pCMV-Luc complexes were freshly prepared in PBS buffer for the transfection with a fixed amount of plasmid DNA (2 μg/well) and AWBP-PEG-g-PLL (4 μg/well). After addition of various amounts of free artery wall binding peptide (range from 31.3 μM to 1.0 mM) for 20 minutes at 4° C., 100 μl AWBP-PEG-g-PLL/pCMV-Luc solution was added to the cells. All the other conditions were the same as described above for the transfection assay.
(§2) (Gene expression assay) Transgene expression was evaluated by luciferase activity of cell lysates from transfected bovine aorta endothelial cells and smooth muscle cells. Measurement of luciferase activity was performed according to the manufacturer's instruction (Luciferase Assay System, Promega, Madison, Wis.). Briefly, the transfected cells were lysed with 1× lysis buffer (1% Triton X-100), 100 mM KPO4, 2 mM dithiothreitol, 10% glycerol, and 2 mM EDTA, pH 7.8) for 15 minutes at room temperature. […] Light emission was measured in triplicate over 10 s and expressed as relative light units (RLUs). RLUs were normalized from the protein content of each sample, which was determined by BCA protein assay.

Data set [2] relates to bovine aorta smooth muscle cells. In words: Transfection inhibition assay with free AWBP. In kind it is cell-based. Particulars: free AWBP 31.25 μM to 500 μM. The procedure: as §1, §2
In the next data set the test system is DNase I. Description: DNase protection assay. Particulars: 37° C.; charge ratio 2/1 (+/−); 10 times excess of DNase I; FIG. 3B. The procedure:
AWBP-PEG-g-PLL/pDNA complexes were prepared at the charge ratios of 2/1 (+/−) and incubated in the presence of 10 times excess of DNase I. At 0, 5, 10, 15, 20, 60, and 120 minutes after incubation, 50 μl of the sample was transferred into another tube and mixed with 100 μl of stop solution (400 mM NaCl and 100 mM EDTA) using mild agitation with a vortexer. The sample was then mixed with 12 μl of 10% (w/v) sodium dodecyl sulfate (SDS) and incubated at 65° C. overnight. DNA was extracted with the mixture of Tris-EDTA saturated phenol:chloroform:isoamyl alcohol (25:24:1, v/v). The extracted DNA was precipitated with 700 μl of absolute ethanol at 12,000 rpm for 30 minutes and washed with 70% ethanol. The DNA precipitate was air-dried and then dissolved in 10 μl TE buffer. The plasmid integrity was assessed by electrophoresis in a 1% agarose gel.

In data set [3] the test system is bovine aorta endothelial cells. Description: Transfection assay (luciferase gene expression). In kind it is cell-based. The procedure: (§3) Gene expression. (Transfection assay) Primary bovine aorta endothelial cells and smooth muscle cells were prepared, cultured, characterized, and identified as described in L. Yu et al., supra. Bovine aorta endothelial cells (5×10^5/well) and smooth muscle cells (2×10^5/well) were seeded in 24-well plates with 1 ml Dulbecco's modified Eagle medium (DMEM, Hyclone Laboratories, Logan, Utah) containing 10% fetal bovine serum (FBS, Hyclone Laboratories) and incubated for 24 hours to 70-80% confluency. The AWBP-PEG-g-PLL/pCMV-Luc complexes were freshly prepared in PBS for the transfection with fixed amount of plasmid DNA (2 μg/well) and various amounts of AWBP-PEG-g-PLL. After incubation of complexes for 30 minutes at room temperature, 100 μl of complex solution was added to the cells and then incubated for 3 hours at 37° C. in 5% CO2 atmosphere. After replacement of media, the cells were incubated for 40 hours under the same conditions. The cells were washed three times with PBS buffer and made ready for the reporter gene expression assay.
(§4) (Gene expression assay) Transgene expression was evaluated by luciferase activity of cell lysates from transfected bovine aorta endothelial cells and smooth muscle cells. Measurement of luciferase activity was performed according to the manufacturer's instruction (Luciferase Assay System, Promega, Madison, Wis.). Briefly, the transfected cells were lysed with 1× lysis buffer (1% Triton X-100), 100 mM KPO4, 2 mM dithiothreitol, 10% glycerol, and 2 mM EDTA, pH 7.8) for 15 minutes at room temperature. To measure the luciferase activity, 20 μl aliquot of cell lysate was mixed with 50 μl of luciferase assay reagent at room temperature and inserted in the luminometer. Light emission was measured in triplicate over 10 s and expressed as relative light units (RLUs). RLUs were normalized from the protein content of each sample, which was determined by BCA protein assay.

In data set [4] the test system is bovine aorta smooth muscle cells. In words: Transfection assay (luciferase gene expression). In kind it is cell-based. As to the method: as §3, §4

Regarding “AWBP: synthetic peptide based on arterial binding domain of apo B-100 (residues 1000-1016) with cysteine added to amino-terminus (CGRALVDTLKFVTQAEGAK; listed as Homo sapiens)”, the “effect of free AWBP on gene transfer by AWBP-PEG-g-PLL/pDNA complexes” value in data set [1] and in data set [2] was “significantly inhibit” in each case.

With “AWBP-PEG-g-PLL: artery wall binding peptide (SEQ ID NO:2) conjugated to poly(ethylene glycol)-grafted-poly(L-lysine), about 4 mol AWBP per mole (CGRALVDTLKFVTQAEGAK; also: conjugated to PEG-grafted poly(L-lysine), about 4 mol peptide per mole, site not given here; listed as Homo sapiens)”, in the data set with DNase I, the “time for which pDNA is protected from digestion with DNase” value was “at least 2 hours”. Further, the “luciferase activity of cell lysate” value in data set [3] (ratio carrier to plasmid DNA from 1.5:1 to 2:1, FIG. 6A) is “significantly increased”; in data set [3] (ratio carrier to plasmid DNA from 2:1 to 5:1, FIG. 6A), “remained constant”; in data set [4] (ratio carrier to plasmid DNA from 1.5:1 to 2:1, FIG. 6B) it was “significantly increased”; in data set [4] (ratio carrier to plasmid DNA from 2:1 to 5:1, FIG. 6B), “remained constant”.
